What was measured:
lipoamide = compound: NC(=O)CCCCC1CCSS1 [lipoamide]; experiment: thermal stability z-score vs DMSO; higher = more thermally stabilized by treatment; settings: HeLa, lipoamide concentration 100 µM
Procedure: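 Cellular thermal proteome profiling in HeLa cells. Cells were treated with 100 µM lipoamide for 1 h, with or without 1 mM arsenate for a further 1 h, then heated to ten temperatures (37-66.3 °C), and soluble protein was quantified by TMT mass spectrometry relative to 0.1% DMSO controls. The thermal stability score (sum of log2 fold changes minus the abundance score) was transformed to a z-score; mean of n = 3 experiments.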

potassium arsenate = compound: O=[As]([O-])(O)O.[K+] [potassium arsenate]; experiment: as above; settings: HeLa; arsenate concentration 1 mM
Procedure: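 Cellular thermal proteome profiling in HeLa cells treated with 1 mM arsenate for 1 h (DMSO pretreatment), heated to ten temperatures (37-66.3 °C). Soluble protein was quantified by TMT mass spectrometry relative to DMSO controls; the thermal stability score was transformed to a z-score; mean of n = 3 experiments.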

[1] = arsenate co-treatment: 1 mM arsenate 1 h
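Note: each temperature applied for 3 min, abundance score taken as mean log2 fold change at the two lowest temperatures, z-score obtained by mean subtraction and division by SD.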

UniProt Q15738, sequence (Q15738 whole entry): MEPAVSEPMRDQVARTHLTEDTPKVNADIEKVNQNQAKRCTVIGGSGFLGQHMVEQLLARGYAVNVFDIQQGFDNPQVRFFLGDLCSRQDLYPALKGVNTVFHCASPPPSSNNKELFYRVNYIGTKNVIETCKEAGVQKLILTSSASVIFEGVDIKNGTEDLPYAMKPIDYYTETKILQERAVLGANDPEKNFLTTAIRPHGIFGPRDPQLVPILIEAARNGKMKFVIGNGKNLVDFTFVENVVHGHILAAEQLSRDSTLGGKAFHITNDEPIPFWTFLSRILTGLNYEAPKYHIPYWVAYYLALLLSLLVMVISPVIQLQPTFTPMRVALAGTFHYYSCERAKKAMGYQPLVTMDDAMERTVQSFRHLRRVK
UniProt Q04721, sequence (Q04721 whole entry): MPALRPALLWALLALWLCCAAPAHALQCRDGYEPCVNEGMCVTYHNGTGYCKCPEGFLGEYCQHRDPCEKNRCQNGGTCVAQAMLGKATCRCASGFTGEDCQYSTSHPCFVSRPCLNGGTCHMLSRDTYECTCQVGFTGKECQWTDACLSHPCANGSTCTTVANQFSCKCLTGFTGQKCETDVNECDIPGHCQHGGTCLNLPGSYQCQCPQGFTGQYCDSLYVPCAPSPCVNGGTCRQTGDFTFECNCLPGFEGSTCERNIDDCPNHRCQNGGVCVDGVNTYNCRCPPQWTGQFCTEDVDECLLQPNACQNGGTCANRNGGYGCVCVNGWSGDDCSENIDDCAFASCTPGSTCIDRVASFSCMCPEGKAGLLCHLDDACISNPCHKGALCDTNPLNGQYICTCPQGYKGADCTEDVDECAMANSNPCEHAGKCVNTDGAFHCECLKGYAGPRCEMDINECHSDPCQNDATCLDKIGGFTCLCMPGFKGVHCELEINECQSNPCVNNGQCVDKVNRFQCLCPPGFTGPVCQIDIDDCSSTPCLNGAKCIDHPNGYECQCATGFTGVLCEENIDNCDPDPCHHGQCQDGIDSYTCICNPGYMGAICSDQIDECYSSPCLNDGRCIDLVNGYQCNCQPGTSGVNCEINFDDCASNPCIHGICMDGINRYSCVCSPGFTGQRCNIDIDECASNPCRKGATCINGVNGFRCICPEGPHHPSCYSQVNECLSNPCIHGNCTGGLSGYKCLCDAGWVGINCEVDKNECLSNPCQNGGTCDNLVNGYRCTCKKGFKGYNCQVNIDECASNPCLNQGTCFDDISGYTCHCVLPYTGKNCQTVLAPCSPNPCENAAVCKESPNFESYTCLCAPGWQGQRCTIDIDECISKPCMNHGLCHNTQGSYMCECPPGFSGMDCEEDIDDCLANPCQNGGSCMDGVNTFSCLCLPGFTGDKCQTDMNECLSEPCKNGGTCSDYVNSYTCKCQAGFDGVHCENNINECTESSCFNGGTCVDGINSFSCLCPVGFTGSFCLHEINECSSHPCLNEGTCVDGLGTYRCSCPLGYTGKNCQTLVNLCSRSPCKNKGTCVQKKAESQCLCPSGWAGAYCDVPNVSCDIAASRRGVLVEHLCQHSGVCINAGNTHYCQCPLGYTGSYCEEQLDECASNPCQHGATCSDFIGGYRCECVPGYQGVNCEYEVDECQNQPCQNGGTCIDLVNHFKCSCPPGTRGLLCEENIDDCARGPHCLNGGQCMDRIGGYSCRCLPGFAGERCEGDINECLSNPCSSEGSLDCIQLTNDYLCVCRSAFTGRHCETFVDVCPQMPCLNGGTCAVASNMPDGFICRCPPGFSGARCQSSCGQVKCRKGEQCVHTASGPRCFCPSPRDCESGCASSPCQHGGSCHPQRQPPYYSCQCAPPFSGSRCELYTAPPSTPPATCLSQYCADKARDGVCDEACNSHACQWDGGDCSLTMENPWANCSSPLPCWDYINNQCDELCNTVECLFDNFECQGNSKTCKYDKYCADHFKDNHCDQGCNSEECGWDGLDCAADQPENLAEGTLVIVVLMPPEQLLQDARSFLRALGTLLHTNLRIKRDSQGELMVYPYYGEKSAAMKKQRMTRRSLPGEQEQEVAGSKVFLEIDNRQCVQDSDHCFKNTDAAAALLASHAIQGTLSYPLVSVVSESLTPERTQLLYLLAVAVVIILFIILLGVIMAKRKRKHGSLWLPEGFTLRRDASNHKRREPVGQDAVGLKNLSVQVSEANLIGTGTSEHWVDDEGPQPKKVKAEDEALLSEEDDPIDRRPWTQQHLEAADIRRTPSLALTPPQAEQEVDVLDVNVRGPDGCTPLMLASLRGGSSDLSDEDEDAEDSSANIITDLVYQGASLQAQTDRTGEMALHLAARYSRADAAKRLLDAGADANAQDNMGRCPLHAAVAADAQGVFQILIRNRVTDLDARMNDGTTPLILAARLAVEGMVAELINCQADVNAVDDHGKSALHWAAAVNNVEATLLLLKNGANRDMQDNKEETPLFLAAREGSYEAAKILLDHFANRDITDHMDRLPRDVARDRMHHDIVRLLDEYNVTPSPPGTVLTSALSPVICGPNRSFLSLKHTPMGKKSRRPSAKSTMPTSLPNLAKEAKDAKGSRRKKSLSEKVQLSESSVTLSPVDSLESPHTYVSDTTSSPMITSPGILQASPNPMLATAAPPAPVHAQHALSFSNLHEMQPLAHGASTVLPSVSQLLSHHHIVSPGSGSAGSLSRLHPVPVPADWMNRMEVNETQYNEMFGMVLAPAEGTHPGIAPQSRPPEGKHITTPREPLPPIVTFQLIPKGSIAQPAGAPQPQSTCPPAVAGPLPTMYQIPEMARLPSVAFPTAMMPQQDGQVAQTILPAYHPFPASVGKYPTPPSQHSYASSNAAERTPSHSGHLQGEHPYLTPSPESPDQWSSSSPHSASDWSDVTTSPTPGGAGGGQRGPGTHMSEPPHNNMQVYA
UniProt Q9H7Z3, sequence (Q9H7Z3 whole entry): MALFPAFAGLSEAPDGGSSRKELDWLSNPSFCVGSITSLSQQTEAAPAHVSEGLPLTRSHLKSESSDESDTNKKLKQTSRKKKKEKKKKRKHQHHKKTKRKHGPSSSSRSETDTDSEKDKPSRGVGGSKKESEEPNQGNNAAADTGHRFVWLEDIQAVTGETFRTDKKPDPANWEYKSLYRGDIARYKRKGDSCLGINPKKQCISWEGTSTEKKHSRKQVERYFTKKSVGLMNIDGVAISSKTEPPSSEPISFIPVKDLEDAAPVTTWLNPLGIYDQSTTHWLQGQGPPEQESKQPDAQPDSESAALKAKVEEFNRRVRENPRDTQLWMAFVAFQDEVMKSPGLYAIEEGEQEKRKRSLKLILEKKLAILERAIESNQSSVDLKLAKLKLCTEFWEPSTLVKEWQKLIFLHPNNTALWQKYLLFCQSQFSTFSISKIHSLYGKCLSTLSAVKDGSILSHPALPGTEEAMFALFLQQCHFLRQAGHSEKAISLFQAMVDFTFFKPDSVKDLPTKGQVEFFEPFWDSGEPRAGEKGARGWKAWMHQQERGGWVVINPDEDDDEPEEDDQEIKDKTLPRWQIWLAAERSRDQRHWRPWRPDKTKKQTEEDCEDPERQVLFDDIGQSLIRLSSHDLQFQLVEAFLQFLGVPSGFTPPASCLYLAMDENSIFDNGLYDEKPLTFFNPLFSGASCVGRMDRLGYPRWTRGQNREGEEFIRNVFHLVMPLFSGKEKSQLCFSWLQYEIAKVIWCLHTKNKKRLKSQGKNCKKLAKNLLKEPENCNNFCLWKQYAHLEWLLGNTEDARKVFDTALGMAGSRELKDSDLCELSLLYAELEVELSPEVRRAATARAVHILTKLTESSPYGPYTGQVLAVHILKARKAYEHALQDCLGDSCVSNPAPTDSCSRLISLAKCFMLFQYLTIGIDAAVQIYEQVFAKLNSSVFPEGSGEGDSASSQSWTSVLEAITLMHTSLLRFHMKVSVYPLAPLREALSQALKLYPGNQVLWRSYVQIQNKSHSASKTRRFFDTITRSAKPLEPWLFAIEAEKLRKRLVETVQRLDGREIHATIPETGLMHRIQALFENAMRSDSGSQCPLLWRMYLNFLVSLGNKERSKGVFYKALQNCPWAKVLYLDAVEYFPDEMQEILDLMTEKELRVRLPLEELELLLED
UniProt P17342, sequence (P17342 whole entry): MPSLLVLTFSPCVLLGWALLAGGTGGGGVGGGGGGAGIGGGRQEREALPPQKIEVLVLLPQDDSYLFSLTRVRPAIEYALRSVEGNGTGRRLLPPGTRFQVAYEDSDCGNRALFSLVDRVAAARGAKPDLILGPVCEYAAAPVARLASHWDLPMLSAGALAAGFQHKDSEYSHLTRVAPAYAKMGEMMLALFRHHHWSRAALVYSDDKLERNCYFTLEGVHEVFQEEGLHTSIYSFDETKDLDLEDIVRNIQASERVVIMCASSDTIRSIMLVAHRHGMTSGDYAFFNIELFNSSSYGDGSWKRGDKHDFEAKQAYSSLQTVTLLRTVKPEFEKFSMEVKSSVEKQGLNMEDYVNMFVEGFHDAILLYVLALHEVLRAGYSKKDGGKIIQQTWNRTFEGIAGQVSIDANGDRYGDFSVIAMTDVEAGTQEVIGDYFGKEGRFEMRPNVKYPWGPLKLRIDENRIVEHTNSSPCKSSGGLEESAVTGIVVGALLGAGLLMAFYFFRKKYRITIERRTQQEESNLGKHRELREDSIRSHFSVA
UniProt Q96MG7, sequence (Q96MG7 whole entry): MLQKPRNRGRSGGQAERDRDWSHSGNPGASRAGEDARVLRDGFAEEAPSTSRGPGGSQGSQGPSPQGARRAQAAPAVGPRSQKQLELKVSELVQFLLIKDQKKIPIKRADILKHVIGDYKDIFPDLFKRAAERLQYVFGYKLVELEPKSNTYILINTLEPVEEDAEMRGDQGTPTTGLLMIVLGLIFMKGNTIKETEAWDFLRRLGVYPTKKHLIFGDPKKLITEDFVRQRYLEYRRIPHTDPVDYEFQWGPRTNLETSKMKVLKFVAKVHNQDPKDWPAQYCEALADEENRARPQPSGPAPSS
UniProt Q86WQ0, sequence (Q86WQ0 whole entry): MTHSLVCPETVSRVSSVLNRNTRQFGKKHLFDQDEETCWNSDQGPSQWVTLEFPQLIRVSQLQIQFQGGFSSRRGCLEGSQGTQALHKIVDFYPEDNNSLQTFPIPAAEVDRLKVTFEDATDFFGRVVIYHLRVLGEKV

Row | Target | thermal stability z-score (lipoamide; [1]) | thermal stability z-score (lipoamide; arsenate co-treatment: none) | thermal stability z-score (potassium arsenate)
1 | NOP56 (UniProt O00567) | 0.756 | -0.0331 | 0.516
2 | NOP58 (UniProt Q9Y2X3) | 0.0369 | -0.0387 | 0.471
3 | NOS1AP (UniProt O75052) | 0.676 | -0.0802 | -1.45
4 | NOSIP (UniProt Q9Y314) | -1.04 | -0.0974 | 2.36
5 | NOTCH1 (UniProt P46531) | 0.143 | 0.13 | -0.0336
6 | NOTCH2 (UniProt Q04721) | -1.45 | -1.57 | -0.309
7 | NPC1 (UniProt O15118) | -0.389 | -0.182 | 0.0121
8 | NPC2 (UniProt P61916) | 0.0993 | 0.738 | -0.391
9 | NPEPL1 (UniProt Q8NDH3) | -0.24 | -0.808 | 1.2
10 | NPEPPS (UniProt P55786) | 0.502 | 0.202 | 0.725
11 | NPLOC4 (UniProt Q8TAT6) | -0.0676 | 0.0243 | -0.0761
12 | NPM1 (UniProt P06748) | 1.35 | 0.674 | -1.07
13 | NPM3 (UniProt O75607) | 0.175 | 0.102 | -0.95
14 | NPR1 (UniProt P16066) | -0.594 | -0.153 | 0.119
15 | NPR3 (UniProt P17342) | 0.2 | -0.339 | -0.486
16 | NPRL3 (UniProt Q12980) | -0.0487 | 0.0269 | -0.104
17 | NPTN (UniProt Q9Y639) | 0.275 | -0.0241 | 0.798
18 | NPTX1 (UniProt Q15818) | -3.62 | -3.29 | 0.869

Row | Target | thermal stability z-score (lipoamide; [1]) | thermal stability z-score (lipoamide; arsenate co-treatment: none) | thermal stability z-score (potassium arsenate)
19 | NQO1 (UniProt P15559) | 0.825 | 0.331 | 0.174
20 | NQO2 (UniProt P16083) | 1.23 | 0.788 | 0.389
21 | NR2C2AP (UniProt Q86WQ0) | -0.149 | -0.255 | 0.17
22 | NR3C1 (UniProt P04150) | -0.273 | -0.664 | -0.462
23 | NR4A1 (UniProt P22736) | 0.000871 | 0.0723 | 0.179
24 | NRAS (UniProt P01111) | 0.00516 | -0.21 | -0.271
25 | NRBF2 (UniProt Q96F24) | 0.638 | 0.117 | -0.0833
26 | NRBP1 (UniProt Q9UHY1) | -0.349 | -0.151 | 0.23
27 | NRDC (UniProt O43847) | -0.0123 | -0.0343 | 0.364
28 | NRDE2 (UniProt Q9H7Z3) | 0.0849 | 0.0451 | -0.184
29 | NRF1 (UniProt Q16656) | -0.282 | -0.0693 | 0.311
30 | NSDHL (UniProt Q15738) | 0.566 | 0.0586 | -0.401
31 | NSF (UniProt P46459) | -0.331 | -0.0542 | 0.232
32 | NSFL1C (UniProt Q9UNZ2) | 0.605 | 0.41 | 1.21
33 | NSL1 (UniProt Q96IY1) | 0.254 | -0.0663 | -0.0597
34 | NSMAF (UniProt Q92636) | -0.123 | -0.458 | -0.758
35 | NSMCE2 (UniProt Q96MF7) | 0.278 | 0.339 | 0.541
36 | NSMCE3 (UniProt Q96MG7) | -0.0975 | -0.0424 | 0.119

Reference: the supplement of paper PMC12463676, “Small-molecule dissolution of stress granules by redox modulation benefits ALS models” (Nature Chemical Biology, 2025)
